Test results reported in patent US20220257557A1, “PHARMACEUTICAL COMPOSITION FOR PREVENTING OR TREATING NEUROLOGICAL DISEASES” (GLACEUM INC., priority 2019, published 2022).

Assays:
SH-SY5Y cells = test: Mitochondrial reactive oxygen species (MitoSOX Red) after MPP+; type: cell-based, Human; conditions: 1 mM MPP+ 24 h, then 0.0001-1 μM compound 24 h, FIG. 5
Description: Human neuronal SH-SY5Y cells were cultured in a 1:1 DMEM/F12 medium containing 10% FBS (fetal bovine serum) at 37° C. under 5% carbon dioxide and 95% air. The cultured cells were transferred to a 96-well cell culture plate at a density of 2*10^4 cells/well and cultured for 24 hours. Thereafter, after replacement with serum-restricted medium (1:1 DMEM/F12 medium containing 0.5% FBS), the cells were cultured for 16 hours. Then, the cultured cells were treated with 1 mM MPP+ (1-methyl-4-phenylpyridinium) and cultured for 24 hours, thus inducing mitochondrial dysfunction in the cells. […]
The level of reactive oxygen species generated in mitochondria was measured using a reduced fluorescent material called MitoSOX™ Red reagent.
Specifically, the culture obtained in Experimental Example 3-1 was treated with 50 μg of MitoSOX Red dissolved in 13 μl DMSO and was incubated at 37° C. for 1 hour. […] Then, the fluorescence intensity at an excitation wavelength of 510 nm and an emission wavelength of 595 nm was measured with a fluorescence analyzer to determine the level of reactive oxygen species generated in the mitochondria. […]
The concentration of MitoSOX Red determined from the fluorescence intensity was expressed as a percentage of the normal control.

BV2 cells [1] = test: Transcription of NF-κB protein (p65, p50) into nucleus after LPS (Western blot); type: cell-based; conditions: 3 h pretreatment (Table 3 amounts), LPS 1 μg/ml 1 h
Summary of the method: (§1)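 Cells (5×10^5/well) cultured in DMEM with 10% FBS at 37° C, 5% CO2, pretreated with compound, then stimulated with 1 μg/ml LPS for 1 hour. Nuclear levels of p65 and p50 measured by Western blot.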

BV2 cells [2] = test: iNOS and COX-2 expression after LPS (Western blot); type: cell-based; conditions: 3 h pretreatment (Table 3 amounts), LPS 1 μg/ml 24 h
Summary of the method: (§2)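 RAW264.7 or BV2 cells (5×10^5 cells/well) in DMEM with 10% FBS were pretreated with compound, then stimulated with 1 μg/ml LPS for 24 h. iNOS and COX-2 expression by Western blot; NO and PGE2 production measured. Compound toxicity checked by MTT.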

RAW264.7 cells [3] = test: iNOS and COX-2 expression after LPS (Western blot); type: cell-based; conditions: 3 h pretreatment (Table 3 amounts), LPS 1 μg/ml 24 h
Summary of the method: as §2

RAW264.7 cells [4] = test: Transcription of NF-κB protein (p65, p50) into nucleus after LPS (Western blot); type: cell-based; conditions: 3 h pretreatment (Table 3 amounts), LPS 1 μg/ml 1 h
Summary of the method: as §1

[5] = target: T1, rePON1 (PON1, paraoxonase 1) (Homo sapiens, UniProt P27169); test: Prevention of inhibition of PON1 activity by oxidized linolenic acid (TBBL substrate); type: biochemical
T1 construct: purchased Thermo Corp. RP-75678
T1 sequence (P27169 whole entry): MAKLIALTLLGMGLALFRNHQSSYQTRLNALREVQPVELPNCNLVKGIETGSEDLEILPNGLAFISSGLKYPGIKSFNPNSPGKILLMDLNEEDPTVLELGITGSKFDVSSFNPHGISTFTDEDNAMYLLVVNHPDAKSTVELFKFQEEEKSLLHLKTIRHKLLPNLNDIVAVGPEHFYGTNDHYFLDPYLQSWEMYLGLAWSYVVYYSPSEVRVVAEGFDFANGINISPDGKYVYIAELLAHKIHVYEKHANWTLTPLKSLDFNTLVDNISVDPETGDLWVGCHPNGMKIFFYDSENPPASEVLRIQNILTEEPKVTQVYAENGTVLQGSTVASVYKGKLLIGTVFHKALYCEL
Summary of the method: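 Recombinant PON1 preincubated 30 min at room temperature with compound (30 μM) in 50 mM Tris-HCl/1 mM CaCl2, then exposed to oxidized linolenic acid for 2 h. Activity read with TBBL and DTNB at 420 nm, 37 °C, every 2 min for 1 h, expressed relative to uninhibited PON1.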

CCOc1ccc(C2COc3c(ccc4c3CCC(C)(C)O4)C2)c(O)c1 (stereo not drawn) [Formula III-1, 2-(8,8-dimethyl-2,3,4,8,9,10-hexahydropyrano[2,3-f]chromen-3-yl)-5-ethoxyphenol]
level of reactive oxygen species generated in the mitochondria (Mito-SOX) (SH-SY5Y cells): decreased
level of transcription of NF-κB protein into the nucleus, p50 (BV2 cells [1]): concentration-dependently decreased
level of transcription of NF-κB protein into the nucleus, p65 (BV2 cells [1]): concentration-dependently decreased
expression level of COX-2 (BV2 cells [2]): concentration-dependently decreased
expression level of iNOS (BV2 cells [2]): concentration-dependently decreased
expression level of COX-2 (RAW264.7 cells [3]): concentration-dependently decreased
expression level of iNOS (RAW264.7 cells [3]): concentration-dependently decreased
level of transcription of NF-κB protein into the nucleus, p50 (RAW264.7 cells [4]): concentration-dependently decreased
level of transcription of NF-κB protein into the nucleus, p65 (RAW264.7 cells [4]): concentration-dependently decreased
activity at 30 µM ([5]; 30 μM compound with rePON1 30 min, then oxidized linolenic acid 2 h, TBBL substrate, normal control 100, negative control 73.64): 89%
extent to which inhibition of rePON1 activity was prevented, compared with glabridin ([5]; compound 30 μM vs glabridin 30 μM, result in words): greater
inhibition of rePON1 activity by oxidized linolenic acid ([5]; compound 30 μM, result in words): prevented
